{"source": "patent US8354451B2", "about": "“Treatment of microbial infections with compounds that inhibit 4-hydroxyphenylpyruvate dioxygenase” (The UWM Research Foundation, Inc., priority 2009, dated 2013)", "key": {"[1]": {"tested_on": "B. cenocepacia C5424", "assay_type": "cell-based, Burkholderia cenocepacia", "details": "24 h culture, OD597"}, "[2]": {"tested_on": "Pseudomonas aeruginosa", "assay": "Murine model of systemic infection, intraperitoneal", "details": "1 mg/Kg NTBC daily"}}, "note": "Read-outs that look alike come from different tables or passages of the source.", "data": [{"smiles": "O=C1CCCC(=O)C1C(=O)c1ccc(C(F)(F)F)cc1[N+](=O)[O-]", "note": "[NTBC, 2-(2-nitro-4-trifluoromethylbenzoyl)-1,3-cyclohexanedione]", "values": [{"measurement": "pigment production relative to untreated C5424", "setting": "[1]; 10 μM NTBC", "result": "31.95±3.96", "unit": "%"}, {"measurement": "pigment production relative to untreated C5424", "setting": "[1]; 100 μM NTBC", "result": "26.89±0.59", "unit": "%"}, {"measurement": "time to return to normal growth (weight) after administration", "setting": "[2]", "result": "≤ 24", "unit": "h"}, {"measurement": "survival rate versus infected untreated mice", "setting": "[2]; 3.2×10^8 CFU P. aeruginosa", "result": "three-fold higher survival rate"}]}]}
